For 80 compounds, melting point results are on record in a melting point compilation (Tetko et al.).

The compound `Cn1c(=O)c(C2=NNC(=O)C2=Cc2ccc(Cl)cc2Cl)c(O)c2ccccc21` showed a melting point of 280 °C.

Turning to `Cc1ccc(S(=O)(=O)Nc2cc(N)c([N+](=O)[O-])cc2NS(=O)(=O)c2ccc(C)cc2)cc1`, the melting point was determined as 165 °C.

In turn, `Nc1ncc(Cl)cc1I` yielded a melting point of 97 °C.

For `Cc1cc2c(s1)=Nc1ccccc1NC=2N1CCN(C)CC1`, the melting point stood at 195 °C.

With `C=C(C)C(=O)OC1CC2CCC1(C)C2(C)C` (stereo not given), the melting point is -60 °C.

As for `Cc1cncc(Oc2cccc(Br)c2)n1`, the melting point was in the range of 38 to 39.5 °C.

As to `CSc1nc(=O)n(CCO)c2c1CCC2`, the melting point lay in the range of 193 to 195 °C.

As for `O=S(=O)(Cl)Cc1ccccc1F`, the melting point lay within 55 to 56 °C.

The compound `C#CCCCCCCCCCCCC` registered a melting point of 0 °C.

As for `N#CCCSCCC#N`, the melting point fell in the range of 24 to 25 °C.

The compound `CN1CCN(c2ccc(CO)cc2)CC1` registered a melting point of 118 to 119 °C.

`O=C(O)CC(=O)CC(=O)O` had a melting point of 133 °C.

With `CC(=O)c1ccc(C=O)cc1`, the melting point is 33 °C.

In turn, `COc1ccc(-n2ncc(C(=O)O)c2C)cc1` had a melting point of 212 to 213 °C.

Compound `OCc1cccc2ccsc12` came in with a melting point of 76.5 to 78 °C.

On to `COc1ccc(C(C)=O)cc1F`, for which the melting point was 92 °C.

Compound `CCCCCCCc1ccc(-c2ccccc2)cc1` gave a melting point of 27 °C.

In turn, `Cc1[nH]c2c([N+](=O)[O-])cccc2c1C` returned a melting point of 160 to 165 °C.

In turn, `O=C(O)CCCCCCCCCCCC(=O)O` came in with a melting point of 112 to 114 °C.

`O=[N+]([O-])c1ccc(C=Cc2ccc(C=Cc3ccc([N+](=O)[O-])cc3[N+](=O)[O-])cc2)c([N+](=O)[O-])c1` displayed a melting point of 294 °C.

As for `BrCCI`, the melting point amounted to 28 °C.

Turning to `CN1CC(Br)C(=O)NC1=O` (stereo not given), the melting point lay within 153 to 155 °C.

Consider `NNc1nc(N)nc(-c2ccccn2)n1`, for which the melting point lay in the range of 287 to 289 °C.

In the case of `CC1=C(O)C(=O)C2OC2C1=O` (stereo not given), the melting point was determined as 127 °C.

The compound `C=C(Br)CC1(C(C)C)C(=O)NC(=O)NC1=O` gave a melting point of 177 °C.

`O=[N+]([O-])c1cccc(-c2nnc3n2NC(c2ccccc2)S3)c1` (stereo not given) registered a melting point of 205 °C.

`CC(C)C12C=CC(C)(CC1)OO2` (stereo not given) returned a melting point of 3.3 °C.

Turning to `N#CC(N)=C(N)C#N`, the melting point was 178 to 179 °C.

As for `O=S(=O)(SS(=O)(=O)c1ccccc1)c1ccccc1`, the melting point lay within 129 to 134 °C.

Turning to `Cc1ccc(C)c(CC(=O)O)c1`, the melting point fell in the range of 128 to 132 °C.

Compound `Nc1cc(C(F)(F)F)ccc1N1CCCC1` yielded a melting point of 33 to 35 °C.

The compound `Cn1nc(C(F)(F)F)c(C(=O)O)c1Cl` gave a melting point of 201 to 202 °C.

On to `O=C(Cl)c1cc2ccccc2o1`, for which the melting point was 54 to 55 °C.

`COc1cc(N)c(Cl)cc1C(=O)NC1CCN(CCCOc2ccc(F)cc2)CC1OC` (stereo not given) gave a melting point of 110 °C.

In turn, `FC(F)C(F)(F)Cl` showed a melting point of -117 °C.

Compound `O=C(N[C@H]1CCCC[C@H]1C(=O)O)OCc1ccccc1` (relative stereo) registered a melting point of 130 to 136 °C.

For the compound `NC(=O)c1cccc(CCl)c1`, the melting point was in the range of 125 to 127 °C.

As to `Oc1ccc(C2CCCCC2)cc1Cl`, the melting point stood at 40.5 °C.

Consider `CC(Oc1ccc(Oc2nc3ccc(Cl)cc3o2)cc1)C(=O)O` (stereo not given), for which the melting point worked out at 158 °C.

Turning to `CC(C(=O)Nc1ccc(F)c(Cl)c1)(C(F)(F)F)C(F)(F)F`, the melting point turned out to be 72 °C.

For the compound `COc1ccc2[nH]cc(CCN(C)C)c2c1`, the melting point amounted to 69.5 °C.

For the compound `O=[N+]([O-])c1cc(O)c(Cl)cc1Cl`, the melting point turned out to be 100 °C.

Consider `NNC(=O)c1cccc(Cl)c1`, for which the melting point is 158 °C.

`O=C(CCCN1CCN(c2ccccn2)CC1)c1ccc(F)cc1` registered a melting point of 92 °C.

`Brc1ccc(OCc2ccccc2)cc1` yielded a melting point of 62 °C.

In turn, `Cc1c(O)ccc2c1OC(C)(C)CC2=O` gave a melting point of 181 to 182 °C.

In turn, `NC(Cc1cc(I)c(Oc2ccc(O)c(I)c2)c(I)c1)C(=O)O` (stereo not given) returned a melting point of 236 °C.

As to `Nc1ncnc2c1ncn2C1(CO)OC(CO)C(O)C1O` (stereo not given), the melting point is 212 °C.

With `c1ccc2c(Oc3cccc4ccccc34)cccc2c1`, the melting point amounted to 110 °C.

Regarding `O=C(O)c1c(C(=O)O)c(C(=O)O)c(C(=O)O)c(C(=O)O)c1C(=O)O`, the melting point is 287 °C.

In turn, `Cc1ccccc1C=CC(=O)O` showed a melting point of 175 to 177 °C.

`CC(C)OC(=O)[C@H](C)O` yielded a melting point of 1 °C.

Compound `CN1CCOc2cc(Br)cnc21` showed a melting point of 77 to 79 °C.

Compound `Cn1c(SCC(=O)O)nnc1-c1ccc2ncccc2c1` yielded a melting point of 238 to 239 °C.

The compound `O=C1C(=Cc2ccc(N(CCCl)CCCl)cc2)SC(=S)N1CN(CCCl)CCCl` returned a melting point of 106 °C.

`S=C1NCCCCN1` yielded a melting point of 178 to 180 °C.

For the compound `O=C(OCc1ccccc1)c1ccc(O)cc1`, the melting point is 112 °C.

For the compound `CCCCCCCCCCOc1ccccc1OCCCCCCCCCC`, the melting point fell in the range of 39 to 42 °C.

In the case of `COc1c(C)c2c(c(O)c1CC=C(C)CCC(=O)OCCN1CCOCC1)C(=O)OC2`, the melting point is 93.5 °C.

`Cc1cc2nsnc2cc1Cl`: the melting point was 85 to 86 °C.

Compound `Cc1ccc(S(=O)(=O)Cl)cc1[N+](=O)[O-]` displayed a melting point of 38 to 40 °C.

The compound `COc1cc(C(c2c(O)cc(C)oc2=O)c2c(O)cc(C)oc2=O)ccc1O` registered a melting point of 205 to 208 °C.

Compound `CC12CCC3C(CCC4=CC(=O)C=CC43O)C1CCC2=O` (stereo not given) had a melting point of 219 to 221 °C.

In the case of `Sc1ncccn1`, the melting point stood at 230 °C.

Turning to `N#Cc1cc2ccccc2cc1C#N`, the melting point was in the range of 253 to 257 °C.

`C#Cc1ccc(F)cc1` returned a melting point of 28 °C.

`CC=Cc1ccc(OC)c(OC)c1` had a melting point of 18 °C.

Take `c1c2c(cc3c1OCO3)CC2`: the melting point came to 62 °C.

For the compound `C=C1C(=O)C23C4CC5C(C)(C)CCC(OC(C)=O)C5(C(=O)O4)C2C(OC(C)=O)CC1C3O` (stereo not given), the melting point was determined as 238 °C.

`CCSc1nnc(N)s1` returned a melting point of 133 to 136 °C.

`O=C(Nc1cccc2ccccc12)C(C(F)(F)F)C(F)(F)F` displayed a melting point of 224 °C.

Regarding `O=S(=O)(Cl)c1cc2ccccc2s1`, the melting point was in the range of 75 to 76 °C.

`Cc1nc(-c2ccc(C(=O)O)cc2)no1`: the melting point is 262 to 264 °C.

For the compound `ON=Cc1sccc1Oc1ccccc1`, the melting point fell in the range of 105 to 106 °C.

Consider `Nc1cccc(Cn2cncn2)c1`, for which the melting point is 88 to 89 °C.

`COc1ccc(CCC(C)=O)cc1` displayed a melting point of 8 °C.

Take `CCOc1ccc(F)cc1`: the melting point is -8.5 °C.

`O=C(c1ccc(Cl)cc1)c1noc(-c2ccc3ccccc3c2)c1S(=O)(=O)c1ccccc1` displayed a melting point of 135 °C.

`CC(C)(C)c1cc(C(C)(C)C)cc(C(C)(C)C)c1` gave a melting point of 71 °C.

For `N#CC=Cc1ccco1`, the melting point was determined as 38 °C.
